These results are taken from US7981893B2, “Heteroaryl compounds, compositions thereof, and methods of treatment therewith” (Signal Pharmaceuticals, LLC, priority 2006, dated 2011).

Molecules are shown by their SMILES.

The target of one experiment is T1, PKCθ (Homo sapiens, UniProt Q04759).
T1 construct: purchased Invitrogen
Briefly: PKCθ IMAP Assay. Conditions: IMAP fluorescence polarization screening assay, 35 μM ATP. It counts as biochemical. The gist of the method:
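IMAP fluorescence polarization with 0.5 nM PKCθ, 100 nM FAM-AKRRRLSSLRA, 35 μM ATP, 2.5% DMSO, pH 7.6 HEPES with phosphatidyl serine/diacylglycerol. Compound pre-incubated with enzyme 45 min; reaction 60 min, then binding beads ≥30 min before FP read.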

The target in a further experiment is T2, mTOR (Homo sapiens, UniProt P42345).
T2 construct: Dilute TOR fraction 1:14 in “Simple TOR Buffer”
Briefly: mTOR HTR-FRET Assay. It counts as biochemical. Conditions: HTR-FRET screening assay, GST-p70S6 kinase fragment substrate. As to the method:
The following is an example of an assay that can be used to determine the mTOR inhibitory activity of a test compound. Reagents are prepared as follows:
“Simple TOR buffer” (used to dilute high glycerol TOR fraction): 10 mM Tris pH 7.4, 100 mM NaCl, 0.1% Tween-20, 1 mM DTT (from 1M stock frozen at −20° C. just prior to use). For convenience a large quantity of “Simple TOR buffer” w/o DTT can be stored at 4° C. It can be brought to room temperature and DTT added just prior to dilution of TOR fraction.
5×KB/5×Mn/5×ATP solution (used to dilute substrate GST-p70S6kin 81 a.a. just prior to use) (40 ml screen quantity shown):
Enzyme solution: Dilute TOR fraction 1:14 in “Simple TOR Buffer”. For current lot that is 640 μg/ml TOR fraction diluted 14× to yield 45.7 μg/ml TOR in buffer (i.e. 7.85 ml TOR pooled fraction+102.1 ml Simple TOR buffer=110 ml 14× diluted TOR fraction). Each Enzyme Lot must be QC'd prior to assay.
Substrate solution: This may be prepared just prior to assay if preferred. Dilute 5.3 mg/ml GST-p70S6kinase fragment stock to 3.5 μg/ml (97 nM) working stock in 5×KB/5×Mn/5×ATP solution (i.e. 26.41 μL (5.3 mg/ml) GST-p70S6+40 ml 5×KB/5×Mn/5×ATP=40 ml 3.5 μg/ml (97 nM)).
Assay Buffer (for dilution of Antibodies used in Antibody Detection Reagent):
Antibody Detection Reagent (this reagent should be made just prior to addition to Assay Plates):
Using PlateTrak program (Screen) or Matrix Pipettor (SAR), 19.5 μL of diluted TOR fraction is added to assay plate in all test, reference or positive control wells. 19.5 μL of “Simple TOR buffer” is added to all negative control wells. If treating multiple plates with the same compounds, can increase volume of enzyme to multiples of 19.5 μL in a tall 384 well polypropylene plate.
Using EP3, 0.5 μl of test, reference or control DMSO is added to each well with mixing. Plates are incubated for 30 minutes at room temperature.
Using PlateTrak program (Screen) or Matrix Pipettor (SAR) 5 μL of 5×KB/5×Mn/5×ATP/5× substrate solution is added to each well of the assay plate to start the reaction. The solutions are mixed well and incubated for 2 hours at room temperature.
Using PlateTrak program (Screen) or Matrix Pipettor (SAR) 5 μL of 60 mM EDTA is added to stop the reaction. The solutions are mixed well and allowed to sit for 15-20 minutes before the next step.
Using PlateTrak program (Screen) or Matrix Pipettor (SAR) 10 μl of Antibody Detection Reagent is added. The solutions are mixes well and incubated for 5 hours to O/N to allow antibodies to form complexes with phosphorylated substrate.
Plates are read on AnalystHT using protocol Multi-Method protocol.

T1 sequence (Q04759 whole entry): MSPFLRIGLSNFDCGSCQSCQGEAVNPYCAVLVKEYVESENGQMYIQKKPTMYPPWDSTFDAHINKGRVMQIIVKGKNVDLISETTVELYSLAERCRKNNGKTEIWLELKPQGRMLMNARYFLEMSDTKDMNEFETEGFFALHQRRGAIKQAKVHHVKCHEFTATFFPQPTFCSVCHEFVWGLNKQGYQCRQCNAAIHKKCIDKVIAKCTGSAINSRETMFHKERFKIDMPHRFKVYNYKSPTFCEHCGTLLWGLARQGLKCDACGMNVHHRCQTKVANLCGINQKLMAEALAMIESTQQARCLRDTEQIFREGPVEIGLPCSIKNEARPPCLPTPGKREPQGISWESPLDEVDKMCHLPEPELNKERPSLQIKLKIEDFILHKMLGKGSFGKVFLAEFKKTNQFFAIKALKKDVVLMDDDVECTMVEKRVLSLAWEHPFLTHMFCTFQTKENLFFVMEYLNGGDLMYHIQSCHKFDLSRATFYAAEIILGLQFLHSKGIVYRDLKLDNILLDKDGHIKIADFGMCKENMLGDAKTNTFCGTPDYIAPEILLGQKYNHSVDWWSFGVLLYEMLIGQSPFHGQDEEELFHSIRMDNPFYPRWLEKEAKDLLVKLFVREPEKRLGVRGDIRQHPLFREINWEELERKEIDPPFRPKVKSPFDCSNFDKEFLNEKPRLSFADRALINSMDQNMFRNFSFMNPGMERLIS

Consider `COc1cccc(Cn2c(=O)[nH]c3ncc(-c4cccc5ncccc45)nc32)c1` [Compound 47, 1-(3-methoxybenzyl)-6-(quinolin-5-yl)-1H-imidazo[4,5-b]pyrazin-2(3H)-one], for which the results for the IC50 against PKCθ and at mTOR were above 30 µM and 0.1 to 5 µM, respectively.
Take `O=c1[nH]c2ncc(-c3cccc4ncccc34)nc2n1CC1CCCC1` [Compound 50, 1-(cyclopentylmethyl)-6-(quinolin-5-yl)-1H-imidazo[4,5-b]pyrazin-2(3H)-one]: the IC50 (usually the midpoint of a concentration-inhibition curve) at PKCθ is 10.1 to 20 µM; at mTOR, 0.1 to 5 µM.
Taken in the same sequence, the figures for `CC(c1ccccc1F)n1c(=O)[nH]c2ncc(-c3cccc4ncccc34)nc21` (stereo not shown) [Compound 51, 1-(1-(2-fluorophenyl)ethyl)-6-(quinolin-5-yl)-1H-imidazo[4,5-b]pyrazin-2(3H)-one] were 5.1 to 10 µM and 5.1 to 10 µM.
In the case of `CC(c1ccc(F)cc1)n1c(=O)[nH]c2ncc(-c3cccc4ncccc34)nc21` (stereo not shown) [Compound 52, 1-(1-(4-fluorophenyl)ethyl)-6-(quinolin-5-yl)-1H-imidazo[4,5-b]pyrazin-2(3H)-one], the IC50 against PKCθ lay within 0.1 to 5 µM; at mTOR, 5.1 to 10 µM.
Taken in the same sequence, the figures for `O=c1[nH]c2ncc(-c3cccc4ncccc34)nc2n1C1CCCC1` [Compound 53, 1-cyclopentyl-6-(quinolin-5-yl)-1H-imidazo[4,5-b]pyrazin-2(3H)-one] were above 30 µM and 5.1 to 10 µM.
Taken in the same sequence, the figures for `CC(c1cccc(F)c1)n1c(=O)[nH]c2ncc(-c3cccc4ncccc34)nc21` (stereo not shown) [Compound 54, 1-(1-(3-fluorophenyl)ethyl)-6-(quinolin-5-yl)-1H-imidazo[4,5-b]pyrazin-2(3H)-one] were 0.1 to 5 µM and 5.1 to 10 µM.
With `COc1cccc(C(C)n2c(=O)[nH]c3ncc(-c4cccc5ncccc45)nc32)c1` (stereo not shown) [Compound 55, 1-(1-(3-methoxyphenyl)ethyl)-6-(quinolin-5-yl)-1H-imidazo[4,5-b]pyrazin-2(3H)-one], the figures for the IC50 against PKCθ and against mTOR were 0.1 to 5 µM and 5.1 to 10 µM, respectively.
Turning to `COc1ccc(C(C)n2c(=O)[nH]c3ncc(-c4cccc5ncccc45)nc32)cc1` (stereo not shown) [Compound 56, 1-(1-(4-methoxyphenyl)ethyl)-6-(quinolin-5-yl)-1H-imidazo[4,5-b]pyrazin-2(3H)-one], the IC50 against PKCθ is 0.1 to 5 µM; at mTOR, above 30 µM.
Taken in the same sequence, the figures for `O=c1[nH]c2ncc(-c3cccc4ncccc34)nc2n1C1CCOCC1` [Compound 57, 6-(quinolin-5-yl)-1-(tetrahydro-2H-pyran-4-yl)-1H-imidazo[4,5-b]pyrazin-2(3H)-one] were above 30 µM and above 30 µM.
Taken in the same sequence, the figures for `O=c1[nH]c2ncc(-c3cccc4ncccc34)nc2n1C1CCCOC1` (stereo not shown) [Compound 58, 6-(quinolin-5-yl)-1-(tetrahydro-2H-pyran-3-yl)-1H-imidazo[4,5-b]pyrazin-2(3H)-one] were above 30 µM and 10.1 to 20 µM.
Taken in the same sequence, the figures for `O=c1[nH]c2ncc(-c3cccc4ncccc34)nc2n1C1CCC(O)CC1` (stereo not shown) [Compound 59, 1-((1s,4s)-4-hydroxycyclohexyl)-6-(quinolin-5-yl)-1H-imidazo[4,5-b]pyrazin-2(3H)-one] were 10.1 to 20 µM and 10.1 to 20 µM.
On to `O=c1[nH]c2ncc(-c3cccc4ncccc34)nc2n1C1CCC(O)CC1` (stereo not shown) [Compound 60, 1-((1r,4r)-4-hydroxycyclohexyl)-6-(quinolin-5-yl)-1H-imidazo[4,5-b]pyrazin-2(3H)-one], for which the results for the concentration for half-maximal inhibition (IC50) against PKCθ and at mTOR were 20.1 to 30 µM and above 30 µM, respectively.
Taken in the same sequence, the figures for `CC(c1ccccc1)n1c(=O)[nH]c2ncc(-c3cccc4cnccc34)nc21` (stereo not shown) [Compound 61, 6-(isoquinolin-5-yl)-1-(1-phenylethyl)-1H-imidazo[4,5-b]pyrazin-2(3H)-one] were 10.1 to 20 µM and 5.1 to 10 µM.
Take `CC(C)n1c(=O)[nH]c2ncc(-c3cccc4ncccc34)nc21` [Compound 64, 1-isopropyl-6-(quinolin-5-yl)-1H-imidazo[4,5-b]pyrazin-2(3H)-one]: the IC50 is 20.1 to 30 µM against PKCθ and 5.1 to 10 µM on mTOR.
Turning to `CC(c1ccc(Cl)cc1)n1c(=O)[nH]c2ncc(-c3cccc4ncccc34)nc21` (stereo not shown) [Compound 65, 1-(1-(4-chlorophenyl)ethyl)-6-(quinolin-5-yl)-1H-imidazo[4,5-b]pyrazin-2(3H)-one], the results for the IC50 at PKCθ and against mTOR were 0.1 to 5 µM and 5.1 to 10 µM, respectively.
For the molecule `Cc1nc2[nH]c(=O)n([C@@H](C)c3ccccc3)c2nc1-c1cccc2ncccc12` [Compound 68, 5-methyl-1-((S)-1-phenylethyl)-6-(quinolin-5-yl)-1H-imidazo[4,5-b]pyrazin-2(3H)-one], the IC50 against PKCθ and against mTOR was above 30 µM each time.
`Cc1nc2[nH]c(=O)n([C@H](C)c3ccccc3)c2nc1-c1cccc2ncccc12` [Compound 69, 5-methyl-1-((R)-1-phenylethyl)-6-(quinolin-5-yl)-1H-imidazo[4,5-b]pyrazin-2(3H)-one]: the IC50 against PKCθ was 5.1 to 10 µM; at mTOR, above 30 µM.
As for `CC(c1ccccc1)n1c(=O)[nH]c2ncc(-c3ccc4ncccc4c3)nc21` (stereo not shown) [Compound 73, 1-(1-phenylethyl)-6-(quinolin-6-yl)-1H-imidazo[4,5-b]pyrazin-2(3H)-one], the results for the IC50 on PKCθ and against mTOR were above 30 µM and 5.1 to 10 µM, respectively.
For `CC(c1ccccc1)n1c(=O)[nH]c2ncc(-c3cccc(NS(C)(=O)=O)c3)nc21` (stereo not shown) [Compound 84, N-(3-(2-oxo-3-(1-phenylethyl)-2,3-dihydro-1H-imidazo[4,5-b]pyrazin-5-yl)phenyl)methanesulfonamide], the IC50 at PKCθ is 10.1 to 20 µM; against mTOR, 0.1 to 5 µM.
Taken in the same sequence, the figures for `CC(c1ccccc1)n1c(=O)[nH]c2ncc(-c3ccc(S(C)(=O)=O)cc3)nc21` (stereo not shown) [Compound 85, 6-(4-(methylsulfonyl)phenyl)-1-(1-phenylethyl)-1H-imidazo[4,5-b]pyrazin-2(3H)-one] were above 30 µM and 5.1 to 10 µM.
